Patent US9120744B2, “Plasminogen activator inhibitor-1 inhibitors and methods of use thereof to modulate lipid metabolism” (THE REGENTS OF THE UNIVERSITY OF MICHIGAN, priority 2007, dated 2015)
Structures can show the parent of a compound that is named as a salt.

Biological target: T1, recombinant active human PAI-1 (Homo sapiens (Human), UniProt P05121)
Assay: pH dependence of PAI-1 inhibition, fluorogenic uPA (or tPA) assay
Assay type: biochemical
Settings: pH 6.5 to 8.5

T1 sequence (P05121 24-402): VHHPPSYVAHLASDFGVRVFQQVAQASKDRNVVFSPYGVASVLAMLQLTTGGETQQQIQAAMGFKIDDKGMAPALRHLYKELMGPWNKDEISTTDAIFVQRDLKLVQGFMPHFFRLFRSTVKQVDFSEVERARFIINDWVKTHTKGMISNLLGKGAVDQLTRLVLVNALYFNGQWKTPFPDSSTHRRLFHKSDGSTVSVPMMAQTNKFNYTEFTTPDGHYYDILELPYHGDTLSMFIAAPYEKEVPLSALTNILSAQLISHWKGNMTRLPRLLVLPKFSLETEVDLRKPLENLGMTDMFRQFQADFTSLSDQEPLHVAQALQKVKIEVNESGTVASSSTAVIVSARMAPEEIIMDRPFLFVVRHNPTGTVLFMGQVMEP

Row | Compound | effect of pH on PAI-1 inhibition (in words)
1 | COc1ccc(S(=O)(=O)NCCNS(=O)(=O)c2ccc(OC)c(OC)c2)cc1OC [CDE-029] | increased with increasing pH

Same assay, conditions: pH 7.5 (FIG. 8); additional experiments

Row | Compound | PAI-1 inhibitory efficacy (in words)
2 | O=C(OC[C@H]1O[C@@H](OC(=O)c2cc(O)c(O)c(O)c2)[C@@H](OC(=O)c2cc(O)c(O)c(O)c2)[C@@H](OC(=O)c2cc(O)c(O)c(O)c2)[C@@H]1OC(=O)c1cc(O)c(O)c(O)c1)c1cc(O)c(O)c(O)c1 [CDE-002] | effective PAI-1 inhibitors
3 | O=C(OC[C@H]1OC(OC(=O)c2cc(O)c(O)c(O)c2)[C@H](OC(=O)c2cc(O)c(O)c(O)c2)[C@@H](OC(=O)c2cc(O)c(O)c(O)c2)[C@@H]1OC(=O)c1cc(O)c(O)c(O)c1)c1cc(O)c(O)c(O)c1 (some centres unmarked) [CDE-001] | effective PAI-1 inhibitors
4 | COc1ccc(S(=O)(=O)NCCNS(=O)(=O)c2ccc(OC)c(OC)c2)cc1OC [CDE-029] | effective inhibitors of PAI-1
5 | O=C(OC[C@H]1O[C@@H](OC(=O)c2cc(OCc3ccccc3)c(OCc3ccccc3)c(OCc3ccccc3)c2)[C@H](OC(=O)c2cc(OCc3ccccc3)c(OCc3ccccc3)c(OCc3ccccc3)c2)[C@@H](OC(=O)c2cc(OCc3ccccc3)c(OCc3ccccc3)c(OCc3ccccc3)c2)[C@H]1OC(=O)c1cc(OCc2ccccc2)c(OCc2ccccc2)c(OCc2ccccc2)c1)c1cc(OCc2ccccc2)c(OCc2ccccc2)c(OCc2ccccc2)c1 [CDE-006] | not inhibitory
6 | O=C(OC[C@H]1O[C@H](OC(=O)c2cc(OCc3ccccc3)c(OCc3ccccc3)c(OCc3ccccc3)c2)[C@H](OC(=O)c2cc(OCc3ccccc3)c(OCc3ccccc3)c(OCc3ccccc3)c2)[C@@H](OC(=O)c2cc(OCc3ccccc3)c(OCc3ccccc3)c(OCc3ccccc3)c2)[C@H]1OC(=O)c1cc(OCc2ccccc2)c(OCc2ccccc2)c(OCc2ccccc2)c1)c1cc(OCc2ccccc2)c(OCc2ccccc2)c(OCc2ccccc2)c1 [CDE-007] | not inhibitory
7 | O=C(OC[C@H]1O[C@H](OC(=O)c2cc(O)c(O)c(O)c2)[C@H](OC(=O)c2cc(O)c(O)c(O)c2)[C@@H](OC(=O)c2cc(O)c(O)c(O)c2)[C@H]1OC(=O)c1cc(O)c(O)c(O)c1)c1cc(O)c(O)c(O)c1 [CDE-003] | effective PAI-1 inhibitors
8 | O=C(OC[C@H]1O[C@@H](OC(=O)c2cc(O)c(O)c(O)c2)[C@H](OC(=O)c2cc(O)c(O)c(O)c2)[C@@H](OC(=O)c2cc(O)c(O)c(O)c2)[C@H]1OC(=O)c1cc(O)c(O)c(O)c1)c1cc(O)c(O)c(O)c1 [CDE-004] | effective PAI-1 inhibitors

Biological target: T1, recombinant active human PAI-1
Assay: β-trypsin screening assay for PAI-1 inhibitors;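 further: fluorogenic readout with PAI-1 and β-trypsin at 10:1 molar ratio, untreated PAI-1 wells set as 100% PAI-1 activity and β-trypsin alone as 0%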
Assay type: biochemical
Settings: not given

Row | Compound | screening hit: restoration of β-trypsin activity
9 | Cl.NCCc1ccc(O)c(O)c1 [DOPAMINE HYDROCHLORIDE] | demonstrate PAI-1 inhibitor activity

Same assay, conditions: 10 μM compound; hit = more than 3 standard deviations above control

Row | Compound | screening hit: restoration of β-trypsin activity
10 | O=C(Oc1cc(O)cc2c1C[C@@H](OC(=O)c1cc(O)c(O)c(O)c1)[C@@H](c1cc(O)c(O)c(O)c1)O2)c1cc(O)c(O)c(O)c1 [EPIGALLOCATECHIN 3,5-DIGALLATE] | demonstrate PAI-1 inhibitor activity
11 | CC1=C(O)C(=O)C=C2C1=CC=C1[C@@]2(C)CC[C@@]2(C)[C@@H]3C[C@](C)(C(=O)O)CC[C@]3(C)CC[C@]12C [CELASTROL] | demonstrate PAI-1 inhibitor activity
12 | COc1ccc2[nH]cc(C3=CCNCC3)c2c1 [RU 24969] | demonstrate PAI-1 inhibitor activity
13 | Cc1onc(-c2ccccc2)c1-c1ccc(S(N)(=O)=O)cc1 [VALDECOXIB] | demonstrate PAI-1 inhibitor activity
14 | SAPPANONE A DIMETHYL ETHER | demonstrate PAI-1 inhibitor activity
15 | O=c1c(O)c(-c2ccc(O)c(O)c2)oc2cc(O)ccc12 [NSC 407010] | demonstrate PAI-1 inhibitor activity
16 | C=C1c2cccc(O)c2C(=O)C2=C(O)[C@]3(O)C(=O)C(C(N)=O)=C(O)[C@@H](N(C)C)[C@@H]3[C@@H](O)[C@H]12 [METHACYCLINE HYDROCHLORIDE] | demonstrate PAI-1 inhibitor activity
17 | CN1CCN(CC(=O)N2c3ccccc3C(=O)Nc3cccnc32)CC1 [PIRENZEPINE HYDROCHLORIDE] | demonstrate PAI-1 inhibitor activity
18 | CCN(CC)CCOC(=O)C(c1ccccc1)C1CCCCC1 (centres unmarked) [DROFENINE HYDROCHLORIDE] | demonstrate PAI-1 inhibitor activity
19 | Oc1cc2c(cc1O)C1c3ccc(O)c(O)c3OCC1(O)C2 (centres unmarked) [HAEMATOXYLIN] | demonstrate PAI-1 inhibitor activity
20 | C=C1/C(=C\C=C2/CCC[C@@]3(C)[C@@H]2CC[C@H]3[C@H](C)/C=C/[C@@H](O)C2CC2)C[C@@H](O)C[C@H]1O [CALCIPOTRIOL] | demonstrate PAI-1 inhibitor activity
21 | COc1cc(C(=O)NS(=O)(=O)c2ccccc2C)ccc1Cc1cn(C)c2ccc(NC(=O)OC3CCCC3)cc12 [ZAFIRLUKAST] | demonstrate PAI-1 inhibitor activity
22 | CCN(CC)C(=O)N1CCN(C)CC1 [DIETHYLCARBAMAZINE CITRATE] | demonstrate PAI-1 inhibitor activity
23 | C=C[C@@](C)(O)CC[C@H]1C(=C)C[C@H](O)[C@H]2C(C)(C)CCC[C@]12C [LARIXOL] | demonstrate PAI-1 inhibitor activity
24 | CC(C(=O)[O-])c1ccc(CC2CCCC2=O)cc1.[Na+] (centres unmarked) [LOXOPROFEN SODIUM] | demonstrate PAI-1 inhibitor activity
25 | O=c1c(O)cccc2cc(O)c(O)c(O)c12 [PURPUROGALLIN] | demonstrate PAI-1 inhibitor activity
26 | CC12CC3CC(C)(C1)CC(N)(C3)C2 [MEMANTINE HYDROCHLORIDE] | demonstrate PAI-1 inhibitor activity
27 | O=C(O)c1cc(O)c(=O)c2c(O)c(O)ccc2c1 [7-DESHYDROXYPYROGALLIN-4-CARBOXYLIC ACID] | demonstrate PAI-1 inhibitor activity
28 | Cc1cc(O)c(C=O)c2c1C(=O)Oc1c(C)c(O)c3c(c1O2)C(O)OC3=O (centres unmarked) [NORSTICTIC ACID] | demonstrate PAI-1 inhibitor activity
29 | CC(C)=CCCC1(C)C=Cc2c(O)c3c(c(CC=C(C)C)c2O1)OC12C(=CCCC1C(C)(C)O[C@@]2(C/C=C(\C)C(=O)O)C(=O)O)C3=O (some centres unmarked) [GARCINOLIC ACID] | demonstrate PAI-1 inhibitor activity
30 | CC(C)c1ccc2c(c1)c(SC(C)(C)C)c(CC(C)(C)C(=O)O)n2Cc1ccc(Cl)cc1 [1H-Indole-2-propanoic acid, 1-[(4-chlorophenyl)methyl]-3-[(1,1-dimethylethyl)thio]-Alpha,Alpha-dimethyl-5-(1-methylethyl)-] | demonstrate PAI-1 inhibitor activity

Row | Compound | screening hit: restoration of β-trypsin activity
31 | O=C1c2ccc(O)c(O)c2C(=O)c2c(O)ccc(O)c21 [QUINALIZARIN, quinalizarin] | demonstrate PAI-1 inhibitor activity
32 | NC(=O)OCC(COC(N)=O)c1ccccc1 [Felbamate] | demonstrate PAI-1 inhibitor activity
33 | CN1[C@H]2CCC[C@H]1CC(NC(=O)c1nn(C)c3ccccc13)C2.Cl (some centres unmarked) [GRANISETRON HCl] | demonstrate PAI-1 inhibitor activity
34 | NC[C@H](O)c1ccc(O)c(O)c1 [NOREPINEPHRINE] | demonstrate PAI-1 inhibitor activity
35 | Oc1ccc2c(c1)OC[C@]1(O)Cc3cc(O)c(O)cc3[C@H]21 [BRAZILIN] | demonstrate PAI-1 inhibitor activity
36 | CC[C@@]1(O)C[C@H](O[C@H]2C[C@H](N(C)C)[C@H](O)[C@H](C)O2)c2c(cc3c(c2O)C(=O)c2c(O)cccc2C3=O)[C@H]1C(=O)OC [AKLAVINE HYDROCHLORIDE] | demonstrate PAI-1 inhibitor activity
37 | CN(C)C(=S)SSC(=S)N(C)C [NSC 1771] | demonstrate PAI-1 inhibitor activity
38 | CS(=O)(=O)O.Oc1ccc(C2CNCCc3c2cc(O)c(O)c3Cl)cc1 (centres unmarked) [FENOLDOPAM MESYLATE] | demonstrate PAI-1 inhibitor activity
39 | CCc1oc2ccccc2c1C(=O)c1cc(Br)c(O)c(Br)c1 [NSC 85433] | demonstrate PAI-1 inhibitor activity
40 | O=c1cc(-c2cc(O)c(O)c(O)c2)oc2cc(O)cc(O)c12 [HIERACIN] | demonstrate PAI-1 inhibitor activity
41 | CC[C@@]1(O)C[C@@H]2CN(CCc3c([nH]c4ccccc34)[C@](C(=O)OC)(c3cc4c(cc3OC)N(C)[C@@H]3[C@]45CCN4CC=C[C@@](CC)(C(O)[C@]3(O)C(N)=O)[C@H]45)C2)C1.O=S(=O)(O)O (some centres unmarked) [VINDESINE SULFATE] | demonstrate PAI-1 inhibitor activity
42 | CCOC(=O)C1=C(C)N=C(C)/C(=C(/O)OCC)C1c1ccccc1/C=C/C(=O)OC(C)(C)C (centres unmarked) [LACIDIPINE] | demonstrate PAI-1 inhibitor activity
43 | CN1CCCC(n2nc(Cc3ccc(Cl)cc3)c3ccccc3c2=O)CC1 (centres unmarked) [AZELASTINE HYDROCHLORIDE] | demonstrate PAI-1 inhibitor activity
44 | C=CC1=C(C(=O)O)N2C(=O)[C@@H](NC(=O)C(NC)c3csc(N)n3)[C@H]2SC1 (some centres unmarked) | demonstrate PAI-1 inhibitor activity
45 | NC(CO)C(=O)NNCc1ccc(O)c(O)c1O (centres unmarked) [BENSERAZIDE HYDROCHLORIDE] | demonstrate PAI-1 inhibitor activity
46 | O=c1c(-c2ccccc2)coc2cc(O)cc(O)c12 [5,7-DIHYDROXYISOFLAVONE] | demonstrate PAI-1 inhibitor activity
47 | CCN(CC)CCOc1ccc(C(=C(Cl)c2ccccc2)c2ccccc2)cc1 [CLOMIPHENE CITRATE] | demonstrate PAI-1 inhibitor activity
48 | CC(C)(C)NC[C@H](O)c1ccc(O)c(CO)c1 [LEVALBUTEROL HYDROCHLORIDE] | demonstrate PAI-1 inhibitor activity
49 | CCOC(=O)c1ccc(OC(=O)CCCCCN=C(N)N)cc1.CS(=O)(=O)O [GABEXATE MESYLATE] | demonstrate PAI-1 inhibitor activity
50 | CCN(CC)CCCC(C)Nc1c2ccc(Cl)cc2nc2ccc(OC)cc12 (centres unmarked) [QUINACRINE HYDROCHLORIDE] | demonstrate PAI-1 inhibitor activity
